pIC50: −log10 of the molar value.
Columns and labels:
human V2 receptor = target: T1, human V2 receptor (Homo sapiens, UniProt P30518); experiment: V2 receptor binding assay ([3H](Arg8)-vasopressin, crude membranes of 293FT cells); details: receptor binding test, human V2, 293FT cell membranes
T1 construct: expressed in transfected cells; host or cells: 293FT cells
Procedure: (§1) A summary of the methods is given below.
(§2) Each obtained homogenate was centrifuged for 20 minutes at 50,000×g and 4° C., the sediment was resuspended in a 50 mmol/L Tris hydrochloric acid buffer solution (pH7.4, containing 10 mmol/L magnesium chloride and 0.1% bovine serum albumin), which served as a crude membrane preparation. This crude membrane preparation was added with [^3H] (Arg^8) vasopressin (final concentration: 0.1 nmol/L to 0.4 nmol/L), and each test drug (final concentration: 0.1 nmol/L to lμmol/L or 0.01 nmol/L to 0.1 μmol/L) to 22° C. for 90 minutes. After the end of the reaction, the reaction solution was filtrated using a GF/C glass fiber filter, which had been presoaked in 0.3% polyethyleneimine for two hours. After the GF/C glass fiber filter was dried sufficiently, scintillator was added, and the radioactivity on the filter was measured using a liquid scintillation counter. Binding of [^3H] (Arg^8)-vasopressin in the presence of (Arg^8)-vasopressin, in the amounts of 0.1 μmol/L in the V1b receptor binding assay and 5 μmol/L in the V1a and V2 receptor binding assay, were taken as non-specific binding, and the value obtained by subtracting non-specific binding from the total binding in the absence (Arg^8)-vasopressin served as specific binding.

human V1b receptor = target: T2, human V1b receptor (Homo sapiens, UniProt P47901); experiment: V1b receptor binding assay ([3H](Arg8)-vasopressin, crude membranes of CHO cells); details: for pIC50: receptor binding test, human V1b, CHO cell membranes; for inhibition at 0.1 µM: 0.1 μmol/L test drug, V1b receptor binding assay, read-out: Rate of inhibition (V1b: % of inhibition)
T2 construct: expressed in transfected cells; host or cells: CHO cells
T2 sequence (P47901 1-424): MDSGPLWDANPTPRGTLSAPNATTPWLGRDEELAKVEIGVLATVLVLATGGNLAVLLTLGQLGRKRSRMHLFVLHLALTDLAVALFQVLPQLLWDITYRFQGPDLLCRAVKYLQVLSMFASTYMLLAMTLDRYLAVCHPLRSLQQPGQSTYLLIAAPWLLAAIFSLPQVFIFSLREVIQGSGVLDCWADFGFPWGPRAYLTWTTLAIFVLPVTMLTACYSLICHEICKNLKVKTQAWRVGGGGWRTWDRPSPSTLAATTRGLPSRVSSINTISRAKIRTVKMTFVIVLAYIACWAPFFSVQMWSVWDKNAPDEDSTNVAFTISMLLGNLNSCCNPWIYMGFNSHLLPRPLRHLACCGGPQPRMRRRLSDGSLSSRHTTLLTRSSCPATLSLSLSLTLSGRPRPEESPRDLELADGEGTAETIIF
Procedure: as §1, §2
In addition, regarding the V1b receptor binding assay, the value obtained by, subtracting the amount of binding in the presence of 0.1 μmol/L test drug from the total amount of binding, divided by the amount of specific binding, served as the rate of inhibition (% of inhibition) of the test drug at the concentration tested.

human V1a receptor = target: T3, human V1a receptor (Homo sapiens, UniProt P37288); experiment: V1a receptor binding assay ([3H](Arg8)-vasopressin, crude membranes of 293FT cells); details: receptor binding test, 293FT cell membranes
T3 construct: expressed in transfected cells; host or cells: 293FT cells
T3 sequence (P37288 whole entry): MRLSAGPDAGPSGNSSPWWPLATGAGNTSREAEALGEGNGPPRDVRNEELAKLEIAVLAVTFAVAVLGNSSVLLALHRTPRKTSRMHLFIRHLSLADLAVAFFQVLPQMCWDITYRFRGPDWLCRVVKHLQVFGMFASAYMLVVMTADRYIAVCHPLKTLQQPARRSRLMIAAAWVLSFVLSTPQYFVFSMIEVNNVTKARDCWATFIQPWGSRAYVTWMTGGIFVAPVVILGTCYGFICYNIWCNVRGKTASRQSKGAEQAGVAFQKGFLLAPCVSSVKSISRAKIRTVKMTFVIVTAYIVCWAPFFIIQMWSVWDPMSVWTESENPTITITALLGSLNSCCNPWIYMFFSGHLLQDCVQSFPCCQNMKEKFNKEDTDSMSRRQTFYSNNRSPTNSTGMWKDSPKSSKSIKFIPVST
Procedure: as §1, §2

T1 sequence (P30518 whole entry): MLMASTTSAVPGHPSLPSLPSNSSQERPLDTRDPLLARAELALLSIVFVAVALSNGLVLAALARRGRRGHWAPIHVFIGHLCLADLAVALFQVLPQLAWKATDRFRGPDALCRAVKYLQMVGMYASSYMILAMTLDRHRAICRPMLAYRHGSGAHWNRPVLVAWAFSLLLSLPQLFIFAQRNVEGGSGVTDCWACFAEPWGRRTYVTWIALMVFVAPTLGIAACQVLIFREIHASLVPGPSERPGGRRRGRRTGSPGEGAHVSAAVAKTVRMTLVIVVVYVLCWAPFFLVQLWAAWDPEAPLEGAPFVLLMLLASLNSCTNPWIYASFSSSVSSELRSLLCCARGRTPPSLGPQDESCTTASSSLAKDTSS

| SMILES | pIC50 (human V2 receptor) | pIC50 (human V1b receptor) | pIC50 (human V1a receptor) | inhibition at 0.1 µM (human V1b receptor) [%] |
| --- | --- | --- | --- | --- |
| COc1ccc(S(=O)(=O)N2C(=O)C(c3ccccc3OC)(N3C[C@H](O)C[C@H]3C(=O)N(C)C)c3cc(Cl)ccc32)c(OC(F)(F)F)c1 (single isomer, unassigned) [Example 2] | 5.40 | 8.59 | 6.13 |  |
| COc1ccc(S(=O)(=O)N2C(=O)C(c3ccccc3OC)(N3CCC[C@H]3C(=O)N(C)C)c3cc(Cl)ccc32)c(OC(F)(F)F)c1 (single isomer, unassigned) [Example 5, 1-(5-chloro-3-(2-methoxyphenyl)-1-{[4-methoxy-2-(trifluoromethoxy)phenyl]sulfonyl}-2-oxo-2,3-dihydro-1H-indol-3-yl)-N,N-dimethyl-L-prolinamide] | < 5.00 | 7.80 | 5.66 |  |
| COc1ccc(S(=O)(=O)N2C(=O)C(c3ccccc3OC)(N3CCCC[C@H]3C(=O)N(C)C)c3cc(Cl)ccc32)c(OC(F)(F)F)c1 (single isomer, unassigned) [Example 31] | < 5.00 | 8.28 | 6.02 |  |
| COc1ccc(S(=O)(=O)N2C(=O)C(c3ccccc3OC)(N3Cc4ccccc4C[C@H]3C(=O)N(C)C)c3cc(Cl)ccc32)c(OC(F)(F)F)c1 (single isomer, unassigned) [Example 38 A] | < 5.00 | 7.51 | < 5.00 |  |
| COc1ccc(S(=O)(=O)N2C(=O)C(c3ccccc3OC)(N3CCOC[C@H]3C(=O)N(C)C)c3cc(Cl)ccc32)c(OC(F)(F)F)c1 (single isomer, unassigned) [Example 41] | < 5.00 | 8.15 | 5.42 |  |
| COc1ccc(S(=O)(=O)N2C(=O)C(c3cccc4c3OCC4)(N3CCCC[C@H]3C(=O)N(C)C)c3cc(Cl)ccc32)c(OC(F)(F)F)c1 (stereo partly drawn) [Example 90, (2S)-1-(5-chloro-3-(2,3-dihydro-1-benzofuran-7-yl)-1-{[4-methoxy-2-(trifluoromethoxy)phenyl]sulfonyl}-2-oxo-2,3-dihydro-1H-indol-3-yl)-N,N-dimethylpiperidine-2-carboxamide] |  |  |  | 97 |
| COc1ccc(S(=O)(=O)N2C(=O)C(c3cc(C)ccc3OC)(N3CCN(c4ccncc4)CC3C(=O)N(C)C)c3cc(Cl)ccc32)c(OC(F)(F)F)c1 (stereo not drawn) [Example 112, 1-(5-chloro-3-(2-methoxy-5-methylphenyl)-1-{[4-methoxy-2-(trifluoromethoxy)phenyl]sulfonyl}-2-oxo-2,3-dihydro-1H-indol-3-yl)-N,N-dimethyl-4-pyridin-4-yl piperazine-2-carboxamide] |  |  |  | 55 |
| COc1ccc(S(=O)(=O)N2C(=O)C(c3cc(C)ccc3OC)(N3C[C@H](OCCCO)C[C@H]3C(=O)N(C)C)c3cc(Cl)ccc32)c(OC(F)(F)F)c1 (stereo partly drawn) [Example 139, (4R)-1-(5-chloro-3-(2-methoxy-5-methylphenyl)-1-{[4-methoxy-2-(trifluoromethoxy)phenyl]sulfonyl}-2-oxo-2,3-dihydro-1H-indol-3-yl)-4-(3-hydroxypropoxy)-N,N-dimethyl-L-prolinamide] |  |  |  | 103 |
| COc1ccc(S(=O)(=O)N2C(=O)C(c3cc(C)ccc3OC)(N3C[C@H](OCCC(N)=O)C[C@H]3C(=O)N(C)C)c3cc(Cl)ccc32)c(OC(F)(F)F)c1 (stereo partly drawn) [Example 144, (4R)-4-(3-amino-3-oxopropoxy)-1-(5-chloro-3-(2-methoxy-5-methylphenyl)-1-{[4-methoxy-2-(trifluoromethoxy)phenyl]sulfonyl}-2-oxo-2,3-dihydro-1H-indol-3-yl)-N,N-dimethyl-L-prolinamide] |  |  |  | 95 |

The next lines start with the values.

| pIC50 (human V2 receptor) | pIC50 (human V1b receptor) | pIC50 (human V1a receptor) | inhibition at 0.1 µM (human V1b receptor) [%] | SMILES |
| --- | --- | --- | --- | --- |
|  |  |  | 85 | COc1ccc(S(=O)(=O)N2C(=O)C(c3cc(C)ccc3OC)(N3C[C@H](OCC(=O)O)C[C@H]3C(=O)N(C)C)c3cc(Cl)ccc32)c(OC(F)(F)F)c1 (stereo partly drawn) [Example 148, ({(3R,5S)-1-(5-chloro-3-(2-methoxy-5-methylphenyl)-1-{[4-methoxy-2-(trifluoromethoxy)phenyl]sulfonyl}-2-oxo-2,3-dihydro-1H-indol-3-yl)-5-[(dimethylamino)carbonyl]pyrrolidin-3-yl}oxy)acetic acid] |
|  |  |  | 89 | COc1ccc(S(=O)(=O)N2C(=O)C(c3cc(C)ccc3OC)(N3C[C@H](OCC(O)CO)C[C@H]3C(=O)N(C)C)c3cc(Cl)ccc32)c(OC(F)(F)F)c1 (stereo partly drawn) [Example 150, (4R)-1-(5-chloro-3-(2-methoxy-5-methylphenyl)-1-{[4-methoxy-2-(trifluoromethoxy)phenyl]sulfonyl}-2-oxo-2,3-dihydro-1H-indol-3-yl)-4-(2,3-dihydroxypropoxy)-N,N-dimethyl-L-prolinamide] |
|  |  |  | 107 | CCN(C)CCCO[C@@H]1C[C@@H](C(=O)N(C)C)N(C2(c3cc(C)ccc3OC)C(=O)N(S(=O)(=O)c3ccc(OC)cc3OC(F)(F)F)c3ccc(Cl)cc32)C1 (stereo partly drawn) [Example 152, (4R)-1-(5-chloro-3-(2-methoxy-5-methylphenyl)-1-{[4-methoxy-2-(trifluoromethoxy)phenyl]sulfonyl}-2-oxo-2,3-dihydro-1H-indol-3-yl)-4-{3-[ethyl(methyl)amino]propoxy}-N,N-dimethyl-L-prolinamide] |
|  |  |  | 100 | COc1ccc(S(=O)(=O)N2C(=O)C(c3cc(C)ccc3OC)(N3C[C@H](OCCCN4CCN(C)CC4)C[C@H]3C(=O)N(C)C)c3cc(Cl)ccc32)c(OC(F)(F)F)c1 (stereo partly drawn) [Example 154, (4R)-1-(5-chloro-3-(2-methoxy-5-methylphenyl)-1-{[4-methoxy-2-(trifluoromethoxy)phenyl]sulfonyl}-2-oxo-2,3-dihydro-1H-indol-3-yl)-N,N-dimethyl-4-[3-(4-methylpiperazin-1-yl)propoxy]-L-prolinamide] |
|  |  |  | 78 | COc1ccc(S(=O)(=O)N2C(=O)C(c3cc(C)ccc3OC)(N3C[C@H](O)C[C@H]3C(=O)N(CCO)CCO)c3cc(Cl)ccc32)c(OC(F)(F)F)c1 (stereo partly drawn) [Example 161, (4R)-1-(5-chloro-3-(2-methoxy-5-methylphenyl)-1-{[4-methoxy-2-(trifluoromethoxy)phenyl]sulfonyl}-2-oxo-2,3-dihydro-1H-indol-3-yl)-4-hydroxy-N,N-bis(2-hydroxyethyl)-L-prolinamide] |
|  |  |  | 104 | COc1ccc(S(=O)(=O)N2C(=O)C(c3cc(C)cnc3OC)(N3C[C@H](O)C[C@H]3C(=O)N(C)C)c3cc(Cl)ccc32)c(OC)c1OC (stereo partly drawn) [Example 173, (4R)-1-{5-chloro-3-(2-methoxy-5-methylpyridin-3-yl)-2-oxo-1-[(2,3,4-trimethoxyphenyl)sulfonyl]-2,3-dihydro-1H-indol-3-yl}-4-hydroxy-N,N-dimethyl-L-prolinamide] |
|  |  |  | 105 | CNCc1ccc(OC)c(C2(N3C[C@H](O)C[C@H]3C(=O)N(C)C)C(=O)N(S(=O)(=O)c3ccc(OC)cc3OC(F)(F)F)c3ccc(Cl)cc32)c1 (stereo partly drawn) [Example 206, (4R)-1-(5-chloro-3-{2-methoxy-5-[(methylamino)methyl]phenyl}-1-{[4-methoxy-2-(trifluoromethoxy)phenyl]sulfonyl}-2-oxo-2,3-dihydro-1H-indol-3-yl)-4-hydroxy-N,N-dimethyl-L-prolinamide] |
|  |  |  | 102 | COc1ccc(S(=O)(=O)N2C(=O)C(c3cc(CCN(C)C)ccc3OC)(N3C[C@H](O)C[C@H]3C(=O)N(C)C)c3cc(Cl)ccc32)c(OC(F)(F)F)c1 (stereo partly drawn) [Example 221, (4R)-1-(5-chloro-3-{5-[2-(dimethylamino)ethyl]-2-methoxyphenyl}-1-{[4-methoxy-2-(trifluoromethoxy)phenyl]sulfonyl}-2-oxo-2,3-dihydro-1H-indol-3-yl)-4-hydroxy-N,N-dimethyl-L-prolinamide] |

Source: patent publication US8030499B2, “1,3-dihydro-2H-indole-2-one compound and pyrrolidine-2-one compound fused with aromatic heterocycle” (Taisho Pharmaceutical Co., Ltd., priority 2005, dated 2011)
